# Assays:
# [1] = biological target: Carbonic anhydrase 2 (Homo sapiens) (UniProt P00918)
# [2] = biological target: Carbonic anhydrase 5B, mitochondrial (Homo sapiens) (UniProt Q9Y2D0)
# Description: Inhibition of human recombinant carbonic anhydrase 5B by stopped flow CO2 hydration method
# [3] = biological target: Carbonic anhydrase 1 (Homo sapiens) (UniProt P00915)
# Sequence of Carbonic anhydrase 1 (Homo sapiens) (P00915 2-261 limits assumed): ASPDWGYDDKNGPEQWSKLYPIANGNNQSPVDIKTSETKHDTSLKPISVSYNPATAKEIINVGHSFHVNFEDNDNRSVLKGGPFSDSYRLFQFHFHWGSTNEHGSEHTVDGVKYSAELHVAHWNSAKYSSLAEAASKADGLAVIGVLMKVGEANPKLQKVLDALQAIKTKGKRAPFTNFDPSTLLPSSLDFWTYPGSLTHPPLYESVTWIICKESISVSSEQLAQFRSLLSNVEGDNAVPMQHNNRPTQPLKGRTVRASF
# Sequence of Carbonic anhydrase 5B, mitochondrial (Homo sapiens) (Q9Y2D0 whole entry): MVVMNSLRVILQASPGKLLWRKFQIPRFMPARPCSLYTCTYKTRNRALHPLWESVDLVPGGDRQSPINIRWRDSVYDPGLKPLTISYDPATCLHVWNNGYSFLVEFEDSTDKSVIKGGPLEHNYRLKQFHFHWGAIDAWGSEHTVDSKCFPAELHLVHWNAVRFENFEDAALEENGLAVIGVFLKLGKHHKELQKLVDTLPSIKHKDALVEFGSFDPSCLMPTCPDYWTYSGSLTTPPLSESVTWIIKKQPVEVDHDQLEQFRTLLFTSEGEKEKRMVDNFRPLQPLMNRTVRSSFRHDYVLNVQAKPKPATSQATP
Compound,Ki [1] [µM],Ki [2] [µM],Ki [3] [µM]
CCCCNC(=O)Cc1ccc(O)c(Cl)c1,9.4,0.081,10.7
COc1cc(C[C@@H](C)[C@H](C)Cc2ccc(O)c(OC)c2)ccc1O,230,0.071,307
O=C(Cc1ccc(O)c(Cl)c1)NCc1ccccc1,11.4,0.085,10.5
O=C(O)/C=C/C(=O)O,10.5,0.09,395
OCCc1ccc(O)cc1,8.7,0.105,430
COC(=O)/C=C/C(=O)O,7.5,0.098,284

# Continued by falling Ki [2], values first:
Ki [1] [µM],Ki [2] [µM],Ki [3] [µM],Compound
10.3,0.107,309,O=C(O)Cc1ccc(O)cc1
9.8,0.091,9.6,O=C(Cc1ccc(O)c(Cl)c1)NCCc1ccccc1
10.4,0.084,158,COCCNC(=O)Cc1ccc(O)c(Cl)c1
12.1,0.079,354,COc1cc([C@@H]2[C@@H](C)[C@@H](C)[C@@H]2c2ccc(O)c(OC)c2)ccc1O
9.6,0.07,10.5,COc1cc(/C=C2\N=C(N)NC2=O)ccc1O
11.7,0.069,368,COc1cc([C@@H]2[C@@H](C)[C@H](C)[C@H]2c2ccc(O)c(OC)c2)ccc1O
